From ChEMBL document CHEMBL5143535, “Novel O-acylated (E)-3-aryl-6,7-dihydrobenzisoxazol-4(5H)-one oximes targeting HSP90-HER2 axis in breast cancer cells” (Bioorg Med Chem, 2022) come the findings set out here.

Data set [1] concerns MCF7. Nature of the data set: Antiproliferative activity against human MCF7 cells measured after 72 hrs by MTT assay. Conditions: MCF7, 72 h. It is filed as functional, cell-based. In general terms: Formazan colour is commonly taken as a measure of viable cells.
Data set [2] relates to MDA-MB-231. The data set can be described thus: Antiproliferative activity against human MDA-MB-231 cells measured after 72 hrs by MTT assay. Conditions: MDA-MB-231, 72 h. It is filed as functional, cell-based.
Data set [3] has as its system HCC1954. Nature of the data set: Antiproliferative activity against human HCC1954 cells measured after 72 hrs by MTT assay. It is filed as functional, cell-based. As to conditions: HCC1954, 72 h.
In data set [4] the test system is HCC1954. The data set can be described thus: Antiproliferative activity against human HCC1954 cells measured after 72 hrs by SRB assay. As to conditions: HCC1954, 72 h. It is filed as functional, cell-based. A general note: Sulforhodamine B stains cellular protein and so reports cell mass.
In data set [5] the test system is HCC1954. Nature of the data set: Cell cycle arrest in human HCC1954 cells assessed as increase in cell accumulation at sub-G1 phase measured after 48 hrs by propidium iodide staining based flow cytometry. In kind it is functional. Conditions: dose 10-20 µM, DDE = dose-dependent effect. A general note: Flow cytometry measures light scatter and fluorescence of single cells or particles in a stream.

The nature of data set [6]: Effect on HSP70 expression in human HCC1954 cells at 10 to 20 uM measured after 72 hrs by Western blot analysis. In kind it is toxicity, cell-based. Conditions: hcc1954, 72 h, dose 10-20 µM.
Data set [7] can be described thus: Cytotoxicity against human MCF-10A cells measured after 72 hrs by MTT assay. In kind it is toxicity, cell-based.
Data set [8] deals with HCC1954. Nature of the data set: Cell cycle arrest in human HCC1954 cells assessed as decrease in cell accumulation at G1 phase at 10 to 20 uM measured after 48 hrs by propidium iodide staining based flow cytometry. In kind it is functional. Conditions: dose 10-20 µM.
Data set [9] concerns HCC1954. The data set can be described thus: Induction of apoptosis in human HCC1954 cells assessed as reduction in NF-kappaB expression at 10 to 20 uM measured after 72 hrs by Western blot analysis. In kind it is functional, cell-based. As to conditions: dose 10-20 µM.
For data set [10], the target named is T1, Heat shock protein HSP90 (Homo sapiens) (UniProt P07900+P08238). Nature of the data set: Inhibition of HSP90 in human HCC1954 cells assessed as down regulation of AKT expression at 10 to 20 uM measured after 72 hrs by Western blot analysis. In kind it is cell-based. As to conditions: dose 10-20 µM.
The target in data set [11] is T1, Heat shock protein HSP90 (Homo sapiens). The data set can be described thus: Inhibition of HSP90 in human HCC1954 cells assessed as down regulation of EGFR expression at 10 to 20 uM measured after 72 hrs by Western blot analysis. It is filed as cell-based. Conditions: dose 10-20 µM.
Data set [12] has the same target. Nature of the data set: Inhibition of HSP90 in human HCC1954 cells assessed as down regulation of HER2 expression at 10 to 20 uM measured after 72 hrs by Western blot analysis. It is filed as cell-based. As to conditions: dose 10-20 µM.
Data set [13] relates to HCC1954. Nature of the data set: Cell cycle arrest in human HCC1954 cells assessed as cell accumulation at sub-G1 phase at 20 uM measured after 48 hrs by propidium iodide staining based flow cytometry relative to control. In kind it is functional.
Data set [14] addresses T1, Heat shock protein HSP90 (Homo sapiens). The data set can be described thus: Inhibition of HSP90 in human HCC1954 cells assessed as reduction in AKT phosphorylation at 10 to 20 uM measured after 72 hrs by Western blot analysis. As to conditions: dose 10-20 µM. It is filed as cell-based.
Data set [15] has the same target. The data set can be described thus: Inhibition of HSP90 in human HCC1954 cells assessed as down regulation of ERK1/2 expression at 10 to 20 uM measured after 72 hrs by Western blot analysis. In kind it is cell-based. As to conditions: dose 10-20 µM.
In data set [16] the test system is HCC1954. The data set can be described thus: Induction of apoptosis in human HCC1954 cells assessed as increase in cleaved PARP expression at 10 to 20 uM measured after 72 hrs by Western blot analysis. Conditions: dose 10-20 µM. It is filed as functional, cell-based.
The test system of data set [17] is HCC1954. Nature of the data set: Induction of apoptosis in human HCC1954 cells assessed as increase in cleaved caspase-9 expression at 10 to 20 uM measured after 72 hrs by Western blot analysis. In kind it is functional, cell-based. Conditions: dose 10-20 µM.

Calls of active or inactive are those of the source. The rule behind the calls is not given here.

What is called IC50 is the point on the concentration scale where inhibition reaches its midpoint. A high value points to lower potency. With `CC1(C)C/C(=N\OC(=O)c2ccccc2NC(=O)c2ccccc2F)c2c(-c3ccc(F)cc3)noc2C1`, the IC50 in data set [1], in data set [2] and in [3] was over 25 µM each time.
On to `COc1cccc(C(=O)Nc2cccc(C(=O)O/N=C3\CCCc4onc(-c5ccc(OC)c(OC)c5)c43)c2)c1`, for which the IC50 in data set [1], in data set [2] and in data set [3] was over 25 µM each time.
As to `Nc1cccc(C(=O)Nc2cccc(C(=O)O/N=C3\CCCc4onc(-c5ccc(F)cc5)c43)c2)c1`, the half-inhibitory concentration (IC50) in data set [1], in data set [2] and in data set [3] was over 25 µM in each case.
For `COc1ccc(-c2noc3c2/C(=N/OC(=O)c2cccc(NC(=O)c4cccc(F)c4)c2)CCC3)cc1OC`, the IC50 in data set [1], in data set [2] and in data set [3] was over 25 µM throughout.
Regarding `O=C(Nc1cccc(C(=O)O/N=C2\CCCc3noc(-c4cccc(F)c4)c32)c1)c1cccc(F)c1`, the IC50 in data set [1] was over 25 µM; in data set [2] it was 9.3 µM; in [3] it was over 25 µM.
As for `CC1(C)C/C(=N\OC(=O)c2cccc(NC(=O)c3cccc(F)c3)c2)c2c(-c3ccc(F)cc3)noc2C1`, the IC50 was 5.2 µM in data set [1], over 25 µM in data set [2] and over 25 µM in data set [3].
As for `CC(=O)Nc1ccccc1C(=O)O/N=C1\CCCc2noc(-c3ccc(F)cc3)c21`, the IC50 in [1], in data set [2] and in data set [3] was over 25 µM throughout.
Regarding `COc1ccc(-c2noc3c2/C(=N/OC(=O)c2cccc(NC(=O)c4cccc(F)c4)c2)CC(C)(C)C3)cc1OC`, the half-maximal inhibitory concentration (IC50) in data set [1], in data set [2] and in data set [3] was over 25 µM in each case.
In data set [4], `COc1cc(/C=C(\C#N)C(N)=O)cc(CSc2nc3ccccc3s2)c1O` gave an IC50 of 30 µM.
With `COc1cc(-c2onc3c2/C(=N/OC(=O)c2cccc(NC(=O)c4cccc(F)c4)c2)CC(C)(C)C3)ccc1O`, the concentration for half-maximal inhibition (IC50) in [1] was 6.2 µM; in data set [2], over 25 µM; in [3] it was 6 µM; in [4] it was 6 µM. Moreover, the Activity entry in [5] was “Dde”; in [6] it was “Non-Toxic”; in data set [13], 50%. Further, the 50% inhibitory concentration (IC50) at 72 h in data set [7] is over 30 µM. The result in data set [8], in data set [9], in data set [16] and in data set [17] was Active. The inhibition entry in [10], in [11], in [12], in [14] and in [15] was “Active” throughout.
On to `Nc1cccc(C(=O)Nc2cccc(C(=O)O/N=C3\CCCc4noc(-c5ccc(F)cc5)c43)c2)c1`, for which the 50% inhibitory concentration (IC50) in [1], in data set [2] and in [3] was over 25 µM each time.
Take `COc1ccc(-c2onc3c2/C(=N/OC(=O)c2cccc(NC(=O)c4cccc(F)c4)c2)CC(C)(C)C3)cc1OC`: the half-maximal inhibitory concentration (IC50) in [1], in [2] and in [3] was over 25 µM each time.
Turning to `O=C(Nc1ccccc1C(=O)O/N=C1\CCCc2onc(-c3ccc(F)cc3)c21)c1cccc(F)c1`, the IC50 in data set [1], in [2] and in data set [3] was over 25 µM in each case.
For the compound `CC1(C)C/C(=N\OC(=O)c2cccc(NC(=O)c3cccc(F)c3)c2)c2c(noc2-c2cccc(F)c2)C1`, the concentration for half-maximal inhibition (IC50) in data set [1], in data set [2] and in [3] was over 25 µM each time.
For the compound `O=C(Nc1ccccc1C(=O)O/N=C1\CCCc2noc(-c3ccc(F)cc3)c21)c1ccccc1F`, the 50% inhibitory concentration (IC50) in data set [1], in data set [2] and in data set [3] was over 25 µM each time.
Regarding `COc1ccc(-c2noc3c2/C(=N/OC(=O)c2cccc(NC(=O)c4cccc(N)c4)c2)CCC3)cc1OC`, the half-maximal inhibitory concentration (IC50) in data set [1] is 25 µM; in [2], over 25 µM; in data set [3], over 25 µM.
`CC1(C)C/C(=N\OC(=O)c2cccc(NC(=O)c3cccc(F)c3)c2)c2c(-c3cccc(F)c3)noc2C1`: the IC50 was 25 µM in data set [1], over 25 µM in data set [2] and over 25 µM in data set [3].
Turning to `O=C(Nc1cccc(C(=O)O/N=C2\CCCc3onc(-c4ccccc4F)c32)c1)c1cccc(F)c1`, the results for the IC50 in data set [1], in data set [2] and in data set [3] were over 25 µM, 6.2 µM and over 25 µM, respectively.
Turning to `O=C(Nc1cccc(C(=O)O/N=C2\CCCc3noc(-c4ccc(F)cc4)c32)c1)c1cccc(F)c1`, the IC50 in data set [1], in [2] and in data set [3] was over 25 µM throughout.
In the case of `O=C(Nc1cccc(C(=O)O/N=C2\CCCc3onc(-c4cccc(F)c4)c32)c1)c1cccc(F)c1`, the IC50 in data set [1] was 4.7 µM; in [2], 8.7 µM; in data set [3] it was over 25 µM.
Regarding `CC(C)(C)OC(=O)Nc1cccc(C(=O)Nc2cccc(C(=O)O/N=C3\CCCc4onc(-c5ccc(F)cc5)c43)c2)c1`, the half-inhibitory concentration (IC50) in [1], in data set [2] and in [3] was over 25 µM in each case.
For the compound `O=C(O)c1cccc(NC(=O)c2cccc(F)c2)c1`, the IC50 in [1], in data set [2] and in data set [3] was over 25 µM each time.
On to `O/N=C1\CCCc2onc(-c3cccc(F)c3)c21`, for which the IC50 in data set [1], in [2] and in data set [3] was over 25 µM each time.
